{"source": "patent US20140357688A1", "about": "“METHOD FOR INHIBITING EZH2 EXPRESSION IN BREAST CANCER CELLS” (Yung Shin Pharm. Ind. Co., Ltd., priority 2013, published 2014)", "key": {"Akt": {"tested_on": "Akt", "test": "Western blot of Akt activation", "type": "cell-based, human", "conditions": "3 μM YC-1", "protocol": "(§1) (A) MDA-MB-468 cells were incubated with 3 μM YC-1 for indicated time. Cells were harvested for the detection of phospho-Akt (Ser473), Akt, and PCNA. (B) Cells were pretreated with LY294002 (LY, 10 μM) for 1 h followed by 3 μM YC-1 induction for 6 h. (C) MDA-MB-468 cells were incubated with 3 μM YC-1 for indicated time. Cells were harvested for the detection of phospho-CDK1 (Thr161), CDK1, phospho-EZH2 ([…]), EZH2, and β-actin expression with western blot analysis. Levels of EZH2 phosphorylation were calculated by phospho-EZH2 normalized by total EZH2. (D) Cells were treated with YC-1 for 6 h in the absence or presence of roscovitine (Rosc, 20 μM). Cells were harvested and analyzed by western blotting for protein expression. (E) CDK1 knockdown of MDA-MB-468 cells were induced with 3 μM YC-1 for 4 h and followed by western blot analysis.\n(§2) Cells were lysed in PBS containing proteinase inhibitor and phosphatase inhibitors and sonication. Protein concentration was measured using the Bio-Rad protein assay kit (Bio-Rad Laboratories, Hercules, Calif., USA). Lysate protein was separated by electrophoresis of SDS-PAGE and transferred to Immobilon P membrane (EMD Millipore). […] The band intensities were analyzed and quantified by the Multi Gauge software (Fuji Photo Film)."}, "CDK1": {"tested_on": "CDK1", "test": "Western blot of CDK1 activation", "type": "cell-based, human", "conditions": "3 μM YC-1", "protocol": "as §1, §2"}, "MDA-MB-468": {"tested_on": "MDA-MB-468", "test": "MTT cell viability assay", "type": "cell-based, human", "conditions": "Homo sapiens, MDA-MB-468", "protocol": "(§3) (A) Cells were treated with indicated concentration of YC-1 for 6, 24, and 48 h. Cell viability was determined by MTT method. (B) MDA-MB-468 cells were treated with 3 μM YC-1 for 0, 6, and 12 h, and then stained with fluorescence diacetate (FDA) and propidium iodide (PI). Cell morphology was assessed by fluorescence microscopy with magnification ×20 (upper 3 rows) or ×40 (lowest row). (C) MDA-MB-468 cells were treated with 3 μM YC-1 for 24 h, cells were lysed and subjected to western blot analysis described in Materials and Methods. β-actin is a loading control. Blots were representative of results from three independent experiments. (D) Cells were treated with vehicle (DMSO, as control) or 3 μM YC-1 for 6 h. The cell cycles were analyzed by flow cytometry. (E) Cells were treated with indicated concentration of YC-1 and then performed with clonogenic assay.\n(§4) Human breast cancer cells, MDA-MB-468, MDA-MB-157, MDA-MB-231, MDA-MB-453, and Hs578T, and immortalized mammary epithelial cell lines, 184A1 and MCF-10A, were obtained from American Type Culture Collection (Manassas, Va., USA). MDA-MB-468, MDA-MB-157, MDA-MB-231, and MDA-MB-453 were cultured in DMEM/F12 medium supplemented with 10% FBS, 100 U/ml penicillin, and 100 μg/ml streptomycin. Hs578T was cultured in RPMI 1640 medium containing 10% FBS, 2 mM L-glutamine, 100 U/ml penicillin, and 100 μg/ml streptomycin. 184A1 and MCF-10A were cultured in DMEM/F12 medium supplemented with 5% horse serum, 0.5 μg/ml hydrocortisone, 10 μg/ml insulin, 20 ng/ml epidermal growth factor, 0.1 μg/ml cholera enterotoxin, 2 mM L-glutamine, 100 U/ml penicillin, and 100 μg/ml streptomycin. All cells were maintained in a humidified incubator containing 5% CO2. For hypoxia treatment, cells were incubated in a chamber flushed with 1% 02, 5% CO2, and 94% N2 at 37° C.\n(§5) Cell viability was measured by 3-(4,5-Dimethyl-2-thiazolyl)2,5-diphenyl-2H-tetrazolium bromide (MTT) assay."}, "184A1": {"tested_on": "184A1", "test": "MTT cell viability assay", "type": "cell-based, human", "conditions": "normal mammary epithelial cells 184A1", "protocol": "as §3, §4, §5"}, "MCF-10A": {"tested_on": "MCF-10A", "test": "MTT cell viability assay", "type": "cell-based, human", "conditions": "normal mammary epithelial cells MCF-10A", "protocol": "as §3, §4, §5"}, "EZH2": {"tested_on": "EZH2", "test": "Western blot of EZH2 in tumor from MDA-MB-468 xenograft mice", "type": "in vivo, Nu/Nu mice", "protocol": "(§6) (A)(B) Cells were treated with indicated concentration of YC-1 for 24 h (A) or 3 μM of YC-1 for indicated time (B). Cells were harvested and performed with western blotting analysis. […] The levels of protein expression were quantitated and shown under blots. (C) Cells were transfected with EZH2 shRNA for 0, 1, 2, 3, and 4 days and collected for determination of cell viability (left) and protein expression (right). (D)(E) After 4 days of EZH2 knockdown, cells were incubated with 3 μM YC-1 for 4 h and detected cell viability (D) and protein contents (E). (F) Tumor specimens were isolated and protein was extracted for western blot analysis.\nas §2\nNu/Nu female mice (four weeks old) were from National Laboratory Animal Center, Taipei, Taiwan. […] Tumor size and body weights of mice were measured once per 3 days and tumor volume (mm^3) was calculated as the equation: length×(width)×0.5. […]"}, "H3K27me3": {"tested_on": "H3K27me3", "test": "Western blot of H3K27me3 in MDA-MB-468 cells", "type": "cell-based, human", "protocol": "as §6\nCells were lysed in PBS containing proteinase inhibitor and phosphatase inhibitors and sonication. Protein concentration was measured using the Bio-Rad protein assay kit (Bio-Rad Laboratories, Hercules, Calif., USA). Lysate protein was separated by electrophoresis of SDS-PAGE and transferred to Immobilon P membrane (EMD Millipore). The membranes were incubated with appropriate primary antibodies and horseradish peroxidase-conjugated secondary antibodies (EMD Millipore). The signaling was visualized using Chemiluminescence substrate kit (EMD Millipore) and collected by the Luminesence image analyzer, LAS4000 (Fuji Photo Film Co., Tokyo, Japan). The band intensities were analyzed and quantified by the Multi Gauge software (Fuji Photo Film)."}, "[1]": {"tested_on": "caspase-8, -9, and -3 and PARP", "test": "Western blot of caspases and PARP cleavage", "type": "cell-based, human", "protocol": "as §3, with “(E) Cells were treated with indicated concentration of YC-1 and then performed with clonogenic assay.” left out\n(A)(B) Cells were treated with indicated concentration of YC-1 for 24 h (A) or 3 μM of YC-1 for indicated time (B). […] The levels of protein expression were quantitated and shown under blots. […] (D)(E) After 4 days of EZH2 knockdown, cells were incubated with 3 μM YC-1 for 4 h and detected cell viability (D) and protein contents (E). […]\nas §2, with “USA).” for “USA). Lysate protein was separated by electrophoresis of SDS-PAGE and transferred to Immobilon P membrane (EMD Millipore).”"}}, "data": [{"smiles": "OCc1ccc(-c2nn(Cc3ccccc3)c3ccccc23)o1", "note": "[YC-1, 3-(5′-hydroxymethyl-2′-furyl)-1-benzyl indazole]", "values": [{"measurement": "Akt activation", "setting": "Akt", "result": "activated"}, {"measurement": "CDK1 activation", "setting": "CDK1", "result": "could induce the activation"}, {"measurement": "IC50", "setting": "MDA-MB-468; 24 h-incubation", "result": "620 ± 20", "unit": "nM"}, {"measurement": "IC50", "setting": "MDA-MB-468; 48 h-incubation", "result": "290 ± 20", "unit": "nM"}, {"measurement": "effect on cell viability", "setting": "184A1", "result": "no effect"}, {"measurement": "effect on cell viability", "setting": "MCF-10A", "result": "no effect"}, {"measurement": "EZH2 level in tumor", "setting": "EZH2", "result": "decrease EZH2 level in tumor"}, {"measurement": "H3K27me3 level", "setting": "H3K27me3", "result": "kept unchanged"}, {"measurement": "earliest effects of caspase-3 activation detected", "setting": "[1]; 3 μM YC-1", "result": 4, "unit": "h"}, {"measurement": "cleavage of caspases and PARP", "setting": "[1]; 3 μM YC-1, 24 h", "result": "clearly caused the cleavage of caspases and PARP"}]}]}
